According to patent US20240059703A1 (AMGEN INC., priority 2021, published 2024):
pIC50: −log10 of the molar value.

Molecular target: KRAS G12C (Homo sapiens (Human), UniProt P01116, C118A/G12C)
Assay: 2 h coupled exchange assay
Format: biochemical
Conditions: Avg 2 h Coupled exchange IC50, 2 h compound pre-incubation
Description: The term “2 h coupled exchange assay” or “20 h coupled exchange assay” as used herein refers to the assay described in the Section entitled “BIOLOGICAL EVALUATION.”

Chain of KRAS G12C (P01116 other isoform, or with tags, fused parts or gaps G12C/C118A): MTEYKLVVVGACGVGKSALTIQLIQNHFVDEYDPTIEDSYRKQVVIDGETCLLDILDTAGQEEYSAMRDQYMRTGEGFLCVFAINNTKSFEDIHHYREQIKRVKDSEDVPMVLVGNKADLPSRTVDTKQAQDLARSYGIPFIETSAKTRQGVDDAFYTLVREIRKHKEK

| pIC50 | Structure (SMILES) |
| --- | --- |
| 6.28 | C=CC(=O)N1CC2(CCN(c3nc4cc(-c5ccnn5C(F)F)ccc4c(-c4ccccc4Cl)c3C#N)C2)C1 [Example 17-4, 4-(2-chlorophenyl)-7-(1-(difluoromethyl)-1H-pyrazol-5-yl)-2-(2-(2-propenoyl)-2,6-diazaspiro[3.4]octan-6-yl)-3-quinolinecarbonitrile] |
| 6.24 | C=CC(=O)N1CC2(CCN(c3nc4cc(-c5ccn[nH]5)ccc4c(-c4ccccc4Cl)c3C#N)C2)C1 [Example 17-8, 4-(2-chlorophenyl)-2-(2-(2-propenoyl)-2,6-diazaspiro[3.4]octan-6-yl)-7-(1H-pyrazol-3-yl)-3-quinolinecarbonitrile] |
| 6.14 | C=CC(=O)N1CC2(CCN(c3nc4cc(-c5ocnc5C)ccc4c(-c4ccccc4Cl)c3C#N)C2)C1 [Example 17-9, 4-(2-chlorophenyl)-7-(4-methyl-1,3-oxazol-5-yl)-2-(2-(2-propenoyl)-2,6-diazaspiro[3.4]octan-6-yl)-3-quinolinecarbonitrile] |
| 6.24 | C=CC(=O)N1CC2(CCN(c3nc4cc(-c5ocnc5C)ccc4c(-c4ccccc4F)c3C#N)C2)C1 [Example 17-10, 4-(2-fluorophenyl)-7-(4-methyl-1,3-oxazol-5-yl)-2-(2-(2-propenoyl)-2,6-diazaspiro[3.4]octan-6-yl)-3-quinolinecarbonitrile] |

The remaining lines, values behind:

| Structure (SMILES) | pIC50 |
| --- | --- |
| C=CC(=O)N1CC2(CCN(c3nc4c(c(-c5ncccc5F)c3C#N)CC[C@@H](c3scnc3C)C4)C2)C1 [Example 23-59, (7R)-4-(3-fluoro-2-pyridinyl)-7-(4-methyl-1,3-thiazol-5-yl)-2-(2-(2-propenoyl)-2,6-diazaspiro[3.4]octan-6-yl)-5,6,7,8-tetrahydro-3-quinolinecarbonitrile] | 6.79 |
| C=CC(=O)N1CC2(CCN(c3nc4c(c(-c5cc(NS(C)(=O)=O)cc6ccccc56)c3C#N)CC(C)(C)C4)C2)C1 [Example 25-1, N-(4-(3-cyano-6,6-dimethyl-2-(2-(2-propenoyl)-2,6-diazaspiro[3.4]octan-6-yl)-6,7-dihydro-5H-cyclopenta[b]pyridin-4-yl)-2-naphthalenyl)methanesulfonamide] | 6.35 |
| C=CC(=O)N1CC2(CCN(c3nc4cc(-c5scnc5C)cnc4c(-c4ccccc4F)c3Cl)C2)C1 [Example 28-1, 1-(6-(3-chloro-4-(2-fluorophenyl)-7-(4-methylthiazol-5-yl)-1,5-naphthyridin-2-yl)-2,6-diazaspiro[3.4]octan-2-yl)prop-2-en-1-one] | 6.18 |
| C=CC(=O)N1CC2(CCN(c3nc4c(c(-c5c(C)ccc6cnn(C)c56)c3C(F)F)COC(C)(C)C4)C2)C1 [Example 29-1, 1-(6-(3-(difluoromethyl)-4-(1,6-dimethyl-1H-indazol-7-yl)-7,7-dimethyl-7,8-dihydro-5H-pyrano[4,3-b]pyridin-2-yl)-2,6-diazaspiro[3.4]octan-2-yl)-2-propen-1-one] | 6.19 |
| Cc1ccc2[nH]ncc2c1-c1c(C#N)c(N2CCC3(CN(C(=O)/C=C/COC(F)F)C3)C2)nc2c1CCC(C)(C)C2 [Example 30-1, 2-(2-((2E)-4-(difluoromethoxy)-2-butenoyl)-2,6-diazaspiro[3.4]octan-6-yl)-7,7-dimethyl-4-(5-methyl-1H-indazol-4-yl)-5,6,7,8-tetrahydro-3-quinolinecarbonitrile] | 6.31 |
| Cc1ccc2[nH]ncc2c1-c1c(Cl)c(N2CCC3(CN(C(=O)/C=C/CN(C)C)C3)C2)cc2c1OCCC2 [Example 32-1, (2E)-1-(6-(7-chloro-8-(5-methyl-1H-indazol-4-yl)-3,4-dihydro-2H-chromen-6-yl)-2,6-diazaspiro[3.4]octan-2-yl)-4-(dimethylamino)-2-buten-1-one] | 6.22 |
| C=CC(=O)N1CC2(CCN(c3nc4c(c(-c5[nH]c(=O)c(Br)c6ccccc56)c3C#N)CCC(C)(C)C4)C2)C1 [Example 33-1, 4-(4-bromo-3-oxo-2,3-dihydro-1-isoquinolinyl)-7,7-dimethyl-2-(2-(2-propenoyl)-2,6-diazaspiro[3.4]octan-6-yl)-5,6,7,8-tetrahydro-3-quinolinecarbonitrile] | 6.21 |
